Experimental findings from ChEMBL document CHEMBL4813945, “Discovery and development of novel pyrimidine and pyrazolo/thieno-fused pyrimidine derivatives as potent and orally active inducible nitric oxide synthase dimerization inhibitor with efficacy for arthritis” (Eur J Med Chem, 2021) are described below.

pIC50: −log10 of the molar value. Active and inactive are the calls of the source. Where only a bound is given, the exact number is not on record here.

Series [1] is described as follows: Metabolic stability in rat hepatocytes assessed as half life measured upto 120 mins by LC-MS/MS analysis. The class given is ADME, cell-based, Hepatocyte.
Series [2] has as its system L02. The experiment in a line: Cytotoxicity against human L02 cells assessed as cell viability by MTT assay. The class given is cell-based. For orientation: Tetrazolium assays rely on reduction of a dye to a coloured formazan, in cell work by metabolically active cells.
Series [3] concerns L02. The experiment in a line: Antiinflammatory activity against human L02 assessed as inhibition of LPS-induced NO production preincubated for 1 hrs followed by LPS stimulation and measured after 24 hrs by Griess assay relative to control. Format: functional, cell-based. In general terms: The Griess reaction detects nitrite, a stable product of nitric oxide.
Series [4] in a line: Subacute toxicity in rat assessed as liver damage at 100 to 500 mg/kg, IG administered every other day for 14 days and measured every 2 days by H and E staining. Format: organism-based. To be noted: in vivo, po, 336 h, dose 100-500 mg/kg, time 14 day.
The test system of series [5] is RAW264.7. Kind of series: Cytotoxicity against LPS-induced mouse RAW 264.7 cells assessed as cell viability measured by MTT assay. The class given is cell-based.
For series [6], the system named is Rattus norvegicus. The experiment in a line: Antiinflammatory activity in complete freund's adjuvant-induced male Sprague-Dawley rat model of arthritis assessed as reduction in ankle joint swelling at 40 to 80 mg/kg, IG administered once daily for 2 to 4 weeks. The class given is functional, organism-based. To be noted: dose 40-80 mg/kg, time 2-4 weeks.
A further series deals with CYP3A4/5 (Homo sapiens, UniProt P08684+P20815). The experiment in a line: Inhibition of CYP3A4/5 in human liver microsomes using Midazolam as substrate measured after 20 mins by LC-MS/MS analysis. The class given is ADME. Conditions: probe Midazolam.
The next series has as its target Cytochrome P450 2D6 (Homo sapiens, UniProt P10635). The experiment in a line: Inhibition of CYP2D6 in human liver microsomes using Dextromethorphan as substrate measured after 20 mins by LC-MS/MS analysis. Format: ADME. Background: Liver microsomes are vesicles of endoplasmic reticulum, rich in cytochrome P450 enzymes.
In series [7] the test system is RAW264.7. Kind of series: Cytotoxicity against mouse RAW264.7 cells at 20 uM measured after 24 hrs. Format: cell-based. To be noted: raw264.7, 24 h.
For series [8], the target named is T1, Nitric oxide synthase, inducible (Mus musculus, UniProt P29477).
T1 sequence (P29477 whole entry): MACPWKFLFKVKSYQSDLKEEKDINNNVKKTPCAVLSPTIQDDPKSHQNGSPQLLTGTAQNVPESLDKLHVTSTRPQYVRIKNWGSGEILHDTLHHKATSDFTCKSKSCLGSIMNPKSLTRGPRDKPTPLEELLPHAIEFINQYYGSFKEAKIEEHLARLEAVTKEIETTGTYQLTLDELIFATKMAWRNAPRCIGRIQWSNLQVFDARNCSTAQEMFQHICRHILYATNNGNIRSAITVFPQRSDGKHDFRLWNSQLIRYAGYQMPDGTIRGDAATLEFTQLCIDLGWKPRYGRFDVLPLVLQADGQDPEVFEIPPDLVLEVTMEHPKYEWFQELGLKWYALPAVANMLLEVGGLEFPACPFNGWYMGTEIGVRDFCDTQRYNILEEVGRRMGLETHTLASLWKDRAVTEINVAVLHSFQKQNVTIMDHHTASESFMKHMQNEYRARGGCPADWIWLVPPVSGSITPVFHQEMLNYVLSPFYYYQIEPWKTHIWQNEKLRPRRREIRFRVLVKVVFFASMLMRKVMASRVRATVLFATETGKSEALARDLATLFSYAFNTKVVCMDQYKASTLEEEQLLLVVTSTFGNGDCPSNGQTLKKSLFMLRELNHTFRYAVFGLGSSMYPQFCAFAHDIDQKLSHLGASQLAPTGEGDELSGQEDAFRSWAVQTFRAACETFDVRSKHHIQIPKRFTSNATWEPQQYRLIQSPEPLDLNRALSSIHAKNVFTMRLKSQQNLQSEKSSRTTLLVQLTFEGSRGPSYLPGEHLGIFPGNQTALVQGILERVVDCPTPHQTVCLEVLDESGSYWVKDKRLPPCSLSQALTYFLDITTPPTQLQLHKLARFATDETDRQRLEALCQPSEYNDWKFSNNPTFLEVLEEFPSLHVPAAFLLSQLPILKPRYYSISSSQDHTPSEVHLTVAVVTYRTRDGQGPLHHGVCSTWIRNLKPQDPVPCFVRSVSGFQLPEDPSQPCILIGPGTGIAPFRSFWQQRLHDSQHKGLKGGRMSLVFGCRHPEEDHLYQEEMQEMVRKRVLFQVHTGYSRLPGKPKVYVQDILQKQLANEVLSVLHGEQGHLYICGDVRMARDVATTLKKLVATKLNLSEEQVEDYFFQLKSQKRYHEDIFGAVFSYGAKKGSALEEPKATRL
The experiment in a line: Inhibition of LPS induced NO-dependent iNOS activity in mouse RAW 264.7 cells preincubated for 1 hrs followed by LPS stimulation and measured after 24 hrs by Griess reagent based assay. The class given is cell-based, RAW264.7.

Series [9] can be described thus: Plasma clearance in Sprague-Dawley rat at 1 mg/kg, iv measured after 0.08 to 24 hrs hrs by LC/MS/MS analysis. Format: ADME, organism-based. Conditions: time 0.08-24 hrs.
The nature of series [10]: Acute toxicity in rat assessed as fur wrinkles at 2000 mg/kg, IG administered as single dose. Format: organism-based. To be noted: in vivo, po.
Series [11] is described as follows: Subacute toxicity in rat assessed as anorexia at 100 to 500 mg/kg, IG administered every other day for 14 days and measured every 2 days. Format: organism-based. Conditions: in vivo, po, 336 h, dose 100-500 mg/kg, time 14 day.
The test system of series [12] is RAW264.7. Kind of series: Cytotoxicity against mouse RAW 264.7 cells assessed as cell viability by MTT assay. Format: cell-based.
The next series concerns the target T2, Cytochrome P450 1A2 (Homo sapiens, UniProt P05177).
T2 sequence (P05177 whole entry): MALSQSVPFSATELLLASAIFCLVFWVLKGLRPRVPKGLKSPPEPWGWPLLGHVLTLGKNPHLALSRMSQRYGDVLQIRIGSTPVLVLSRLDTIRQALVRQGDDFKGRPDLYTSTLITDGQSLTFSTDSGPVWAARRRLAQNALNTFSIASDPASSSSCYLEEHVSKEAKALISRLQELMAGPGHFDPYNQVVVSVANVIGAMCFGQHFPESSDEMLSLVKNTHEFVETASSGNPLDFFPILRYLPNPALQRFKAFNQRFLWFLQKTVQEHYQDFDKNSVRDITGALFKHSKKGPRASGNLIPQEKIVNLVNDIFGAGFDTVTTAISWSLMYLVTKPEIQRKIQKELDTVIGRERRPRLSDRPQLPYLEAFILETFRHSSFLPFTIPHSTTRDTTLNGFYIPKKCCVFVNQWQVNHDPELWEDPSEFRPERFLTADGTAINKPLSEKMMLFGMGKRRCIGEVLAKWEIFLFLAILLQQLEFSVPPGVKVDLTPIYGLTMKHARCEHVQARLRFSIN
Kind of series: Inhibition of CYP1A2 in human liver microsomes using Phenacetin as substrate measured after 20 mins by LC-MS/MS analysis. Format: ADME.

Series [13] in a line: Cmax in Sprague-Dawley rat at 1 mg/kg, iv measured after 0.08 to 24 hrs by LC-MS/MS analysis. The class given is ADME, organism-based. Set-up: route intravenous, time upper 24 hrs, dose 1 mg/kg, time lower 0.08 hrs. To be noted: in vivo.
A short description of series [14]: Acute toxicity in IG dosed rat assessed as maximum tolerated dose. The class given is organism-based. To be noted: in vivo, po.
The nature of series [15]: Metabolic stability in rat hepatocytes assessed as intrinsic clearance incubated up to 120 mins measured per million cells by LC-MS/MS analysis. Format: ADME, cell-based, Hepatocyte. Conditions: read-out: CLH.
A short description of series [16]: Metabolic stability in human hepatocytes assessed as parent compound remaining after 120 mins by LC-MS/MS analysis. Format: ADME, cell-based, Hepatocyte. Conditions: read-out: Stabilty.
Series [17] concerns Rattus norvegicus. The experiment in a line: Antiinflammatory activity in complete freund's adjuvant-induced male Sprague-Dawley rat model of arthritis assessed as reduction in synovial hyperplasia at 80 mg/kg, IG after 4 weeks by H and E staining based histopathological analysis. Format: functional, organism-based.

Sequence of Cytochrome P450 2D6 (P10635 whole entry): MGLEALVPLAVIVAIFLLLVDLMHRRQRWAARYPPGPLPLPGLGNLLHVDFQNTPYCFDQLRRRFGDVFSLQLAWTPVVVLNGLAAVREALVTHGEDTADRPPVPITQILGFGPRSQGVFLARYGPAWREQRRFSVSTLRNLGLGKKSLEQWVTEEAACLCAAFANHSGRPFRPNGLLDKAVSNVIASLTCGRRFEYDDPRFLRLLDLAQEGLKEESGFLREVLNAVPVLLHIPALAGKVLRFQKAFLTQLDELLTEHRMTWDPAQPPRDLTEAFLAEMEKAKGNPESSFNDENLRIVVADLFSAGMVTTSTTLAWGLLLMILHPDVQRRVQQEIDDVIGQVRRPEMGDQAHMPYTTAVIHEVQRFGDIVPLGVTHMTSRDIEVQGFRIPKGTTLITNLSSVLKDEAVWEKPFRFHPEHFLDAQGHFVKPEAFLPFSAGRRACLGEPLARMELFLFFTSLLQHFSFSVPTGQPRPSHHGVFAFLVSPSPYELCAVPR

The half-life is the time needed for the level to fall by half in the phase considered. A word on the pIC50: it is the negative decadic logarithm of the IC50, by convention in mol/L. One may read the IC50 as the concentration that inhibits the measured activity by half. Low values mean higher potency, high ones lower potency. In general, clearance refers to the rate of elimination divided by the concentration. In general, Cmax refers to the maximum level reached in the sampled fluid or tissue. What is called MTD is the highest dose tested that stayed within the study's limit of toxicity. Consider `COc1cc(/C=C/c2nc(NCc3ccc(C)cc3)c3sccc3n2)cc(OC)c1OC`, for which the half-life in [1] stood at 55.5 min. Besides, the pIC50 was 2.53 in the series with L02 [2]; below 3.00 in the series with L02 [3]; below 4.30 with RAW264.7 [5]; below 4.30 on Cytochrome P450 2D6; 6.02 in series [8]; below 4.30 in the series with RAW264.7 [12]. The compound also had a pIC50 at Cytochrome P450 1A2 of 4.37. Besides, the Activity result (in series [4]; with RAW264.7 [7]; in series [10]; in series [11]) was “Non-Toxic” throughout. The result in the series with Rattus norvegicus [6] and with Rattus norvegicus [17] was Active. In addition, on CYP3A4/5, the IC50 at 20 min is above 50 µM. Moreover, in series [9], the clearance was determined as 42.9 mL/min/kg. In [13], this compound gave a Cmax of 388 ng/mL. In series [14], the MTD was 2000 mg/kg. Moreover, the hepatocyte CLint in [15] was determined as 12.6 µL/min/1e6 cells. In series [16], the remaining at 2 h was determined as 77.5%.
